Experimental data as given in the NIST ThermoML archive (doi:10.1016/j.fluid.2010.03.001).
± gives the expanded uncertainty stated by the source.

Assay: xn = mol fraction of the nth substance listed
Settings: 101 kPa, Liquid; for viscosity: Concentric cylinders viscometry; for mass density: Vibrating tube method

C=C(C)[C@H]1CC=C(C)CC1 [(R)-1-methyl-4-(1-methylethenyl)cyclohexene] + CCCCCO
Settings	mass density, 293.15 K [kg/m3]	mass density, 303.15 K [kg/m3]	mass density, 313.15 K [kg/m3]	mass density, 323.15 K [kg/m3]	viscosity, 293.15 K [mPa·s]	viscosity, 303.15 K [mPa·s]	viscosity, 313.15 K [mPa·s]	viscosity, 323.15 K [mPa·s]	viscosity, 333.15 K [mPa·s]
x2 = 0	841.5 ± 1	833.6 ± 1	825.8 ± 1	817.9 ± 1	0.902 ± 0.014	0.793 ± 0.013	0.702 ± 0.011	0.628 ± 0.01	0.566 ± 0.01
x2 = 0.092	839.4 ± 0.9	831.4 ± 0.9	823.4 ± 0.9	815.4 ± 0.9	0.935 ± 0.014	0.814 ± 0.013	0.716 ± 0.011	0.635 ± 0.01	0.568 ± 0.009
x2 = 0.1644	837.8 ± 0.8	829.8 ± 0.8	821.8 ± 0.8	813.7 ± 0.8	0.983 ± 0.015	0.85 ± 0.013	0.743 ± 0.011	0.655 ± 0.01	0.582 ± 0.009
x2 = 0.2748	835.4 ± 0.7	827.4 ± 0.7	819.4 ± 0.7	811.3 ± 0.7	1.079 ± 0.015	0.923 ± 0.013	0.799 ± 0.012	0.699 ± 0.011	0.616 ± 0.01
x2 = 0.3592	833.5 ± 0.7	825.4 ± 0.7	817.4 ± 0.7	809.3 ± 0.7	1.182 ± 0.016	1 ± 0.014	0.854 ± 0.012	0.737 ± 0.011	0.644 ± 0.01
x2 = 0.4565	831.2 ± 0.6	823.2 ± 0.6	815.2 ± 0.6	807.1 ± 0.6	1.34 ± 0.017	1.115 ± 0.015	0.942 ± 0.013	0.805 ± 0.011	0.696 ± 0.01
x2 = 0.5542	828.8 ± 0.5	820.8 ± 0.5	812.9 ± 0.5	804.8 ± 0.5	1.564 ± 0.019	1.275 ± 0.016	1.057 ± 0.014	0.891 ± 0.012	0.761 ± 0.01
x2 = 0.6068	827.4 ± 0.5	819.5 ± 0.5	811.6 ± 0.5	803.5 ± 0.5	1.717 ± 0.021	1.384 ± 0.017	1.137 ± 0.014	0.949 ± 0.012	0.803 ± 0.011
x2 = 0.647	826.4 ± 0.5	818.4 ± 0.5	810.6 ± 0.5	802.5 ± 0.5	1.851 ± 0.022	1.477 ± 0.018	1.201 ± 0.015	0.995 ± 0.013	0.837 ± 0.011
x2 = 0.7365	823.8 ± 0.4	816 ± 0.4	808.2 ± 0.4	800.2 ± 0.4	2.213 ± 0.025	1.73 ± 0.02	1.386 ± 0.016	1.129 ± 0.014	0.937 ± 0.012
x2 = 0.8234	821.1 ± 0.4	813.4 ± 0.4	805.8 ± 0.4	797.9 ± 0.4	2.66 ± 0.03	2.055 ± 0.023	1.617 ± 0.018	1.298 ± 0.015	1.06 ± 0.012
x2 = 0.9105	818.1 ± 0.4	810.5 ± 0.4	803 ± 0.4	795.3 ± 0.4	3.26 ± 0.03	2.473 ± 0.026	1.915 ± 0.021	1.51 ± 0.017	1.219 ± 0.014
